Test results taken from ChEMBL document CHEMBL5728306, “Spirocyclic compounds” (2021).

Target: Mitogen-activated protein kinase 1 (Homo sapiens, UniProt P28482)
Assay: ERK1 & ERK2 were then activated by the addition of F1-Substrate, ATP and metal solution and incubated for 1 h at rt. After 1 h, the reaction was terminated by the addition of […] of Termination Buffer (QuickScout Screening Assist MSA; Carna Biosciences) to the well.

Sequence of Mitogen-activated protein kinase 1 (P28482 whole entry): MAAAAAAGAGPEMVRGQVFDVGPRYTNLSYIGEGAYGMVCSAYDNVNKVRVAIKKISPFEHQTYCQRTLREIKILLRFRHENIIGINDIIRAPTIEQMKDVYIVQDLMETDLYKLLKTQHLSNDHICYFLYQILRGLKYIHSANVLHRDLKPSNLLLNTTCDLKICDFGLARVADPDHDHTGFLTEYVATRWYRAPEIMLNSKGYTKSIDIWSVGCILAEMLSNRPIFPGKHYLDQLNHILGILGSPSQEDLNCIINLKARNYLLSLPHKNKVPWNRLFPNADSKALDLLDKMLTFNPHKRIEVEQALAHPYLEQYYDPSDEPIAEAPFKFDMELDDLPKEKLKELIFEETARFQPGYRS

IC50: < 50 nM
Compound: Cc1ncc(-c2n[nH]c3ccc(N4CC[C@]5(CCN(CC(=O)N6CC=C(c7ccc(-c8ncn(C)n8)cc7)CC6)C5)C4=O)nc23)s1
